PubChem BioAssay AID1259407 (Chemical Carcinogenesis Research Information System (CCRIS), 2018)
The source made the active and inactive calls. No rule for the calls is given here.

Tested on: CCRIS mutagenicity, Ames/micronucleus/aberration tests
Assay: CCRIS mutagenicity studies
[1] = Test System: AMES SALMONELLA TYPHIMURIUM, Strain/Indicator: TA98, Metabolic Activation: NONE, Method: PREINCUBATION
[2] = Test System: AMES SALMONELLA TYPHIMURIUM, Strain/Indicator: TA100, Metabolic Activation: NONE, Method: PREINCUBATION
[3] = Test System: AMES SALMONELLA TYPHIMURIUM, Strain/Indicator: TA100, Metabolic Activation: RAT, LIVER, S-9, AROCLOR 1254, Method: PREINCUBATION
[4] = Test System: AMES SALMONELLA TYPHIMURIUM, Strain/Indicator: TA1535, Metabolic Activation: NONE, Method: PREINCUBATION
[5] = Test System: AMES SALMONELLA TYPHIMURIUM, Strain/Indicator: TA1535, Metabolic Activation: RAT, LIVER, S-9, AROCLOR 1254, Method: PREINCUBATION
[6] = Test System: AMES SALMONELLA TYPHIMURIUM, Strain/Indicator: TA1537, Metabolic Activation: NONE, Method: PREINCUBATION
[7] = Test System: AMES SALMONELLA TYPHIMURIUM, Strain/Indicator: TA1537, Metabolic Activation: RAT, LIVER, S-9, AROCLOR 1254, Method: PREINCUBATION

Measured: mutagenic call

CC(=O)OCC(O)CO (stereo not given)
active: Test System: AMES SALMONELLA TYPHIMURIUM, Strain/Indicator: TA1535, Metabolic Activation: HAMSTER, LIVER, S-9, AROCLOR 1254, Method: PREINCUBATION active; positive | [4] active; positive | [5] active; positive
inactive: End Point: IN VITRO CHROMOSOMAL ABERRATIONS, Test System: CHO CELLS, Metabolic Activation: NONE inactive; negative | End Point: IN VITRO CHROMOSOMAL ABERRATIONS, Test System: CHO CELLS, Metabolic Activation: RAT, LIVER, S-9, AROCLOR 1254 inactive; negative | Test System: AMES SALMONELLA TYPHIMURIUM, Strain/Indicator: TA98, Metabolic Activation: HAMSTER, LIVER, S-9, AROCLOR 1254, Method: PREINCUBATION inactive; negative | [1] inactive; negative | Test System: AMES SALMONELLA TYPHIMURIUM, Strain/Indicator: TA98, Metabolic Activation: RAT, LIVER, S-9, AROCLOR 1254, Method: PREINCUBATION inactive; negative | Test System: AMES SALMONELLA TYPHIMURIUM, Strain/Indicator: TA100, Metabolic Activation: HAMSTER, LIVER, S-9, AROCLOR 1254, Method: PREINCUBATION inactive; negative | [2] inactive; negative | [3] inactive; negative | Test System: AMES SALMONELLA TYPHIMURIUM, Strain/Indicator: TA1537, Metabolic Activation: HAMSTER, LIVER, S-9, AROCLOR 1254, Method: PREINCUBATION inactive; negative | [6] inactive; negative | [7] inactive; negative

Nc1ccc(-c2ccc(N)cc2Cl)c(Cl)c1
active: Test System: AMES SALMONELLA TYPHIMURIUM, Strain/Indicator: TA98, Metabolic Activation: HAMSTER, LIVER, S-9, Method: PREINCUBATION (PRIVAL METHOD) active; positive | Test System: AMES SALMONELLA TYPHIMURIUM, Strain/Indicator: TA98, Metabolic Activation: NONE, Method: PREINCUBATION (PRIVAL METHOD) active; positive | Test System: UDS HUMAN CELLS, Strain/Indicator: THY INCORP (NON-S-PHASE), Metabolic Activation: RAT, LIVER, S-9, PHENOBARBITAL, Method: LIQUID SCINTILLATION COUNTING active; positive

CCc1c2ccccc2cc2c1ccc1ccccc12
inactive: Test System: AMES SALMONELLA TYPHIMURIUM, Strain/Indicator: TA100, Metabolic Activation: RAT, LIVER, S-9, PHENOBARBITAL, Method: STANDARD PLATE inactive; negative
active: Test System: AMES SALMONELLA TYPHIMURIUM, Strain/Indicator: TA98, Method: STANDARD PLATE active; positive | Test System: AMES SALMONELLA TYPHIMURIUM, Strain/Indicator: TA100, Method: STANDARD PLATE active; positive

C=CC=O
active: [1] active; positive | Test System: AMES SALMONELLA TYPHIMURIUM, Strain/Indicator: TA100, Metabolic Activation: GLUTATHIONE, Method: PREINCUBATION active; positive | [2] active; positive | [3] active; positive | Test System: AMES SALMONELLA TYPHIMURIUM, Strain/Indicator: TA104, Metabolic Activation: GLUTATHIONE, Method: PREINCUBATION active; positive | Test System: AMES SALMONELLA TYPHIMURIUM, Strain/Indicator: TA104, Metabolic Activation: NONE, Method: PREINCUBATION active; positive | Test System: AMES SALMONELLA TYPHIMURIUM, Strain/Indicator: TA2638, Metabolic Activation: NONE, Method: STANDARD PLATE active; positive | Test System: CHINESE HAMSTER V-79, Strain/Indicator: V-79/6-THIOGUANINE, Metabolic Activation: NONE active; positive
inactive: End Point: IN VITRO CHROMOSOMAL ABERRATIONS, Test System: CHINESE HAMSTER OVARY CELLS, Metabolic Activation: NONE inactive; negative | End Point: IN VITRO CHROMOSOMAL ABERRATIONS, Test System: CHINESE HAMSTER OVARY CELLS, Metabolic Activation: RAT, LIVER, S-9, AROCLOR 1254 inactive; negative | Test System: AMES SALMONELLA TYPHIMURIUM, Strain/Indicator: TA102, Metabolic Activation: NONE, Method: STANDARD PLATE inactive; negative | [4] inactive; negative | [5] inactive; negative | [6] inactive; negative | [7] inactive; negative | Test System: AMES SALMONELLA TYPHIMURIUM, Strain/Indicator: TA1538, Metabolic Activation: NONE, Method: PREINCUBATION inactive; negative | Test System: AMES SALMONELLA TYPHIMURIUM, Strain/Indicator: TA1538, Metabolic Activation: RAT, LIVER, S-9, AROCLOR 1254, Method: PREINCUBATION inactive; negative | Test System: CHINESE HAMSTER OVARY, Strain/Indicator: AS52/6-THIOGUANINE, Metabolic Activation: NONE, Method: STANDARD PLATE inactive; negative | Test System: CHINESE HAMSTER OVARY, Strain/Indicator: CHO-K1-BH4 (HGPRT)/6-THIOGUANINE, Metabolic Activation: NONE inactive; negative | Test System: CHINESE HAMSTER OVARY, Strain/Indicator: CHO-K1-BH4 (HGPRT)/6-THIOGUANINE, Metabolic Activation: RAT, LIVER, S-9, AROCLOR 1254 inactive; negative | Test System: E. COLI, Strain/Indicator: WP2 (PKM101), Metabolic Activation: NONE, Method: STANDARD PLATE inactive; negative | Test System: E. COLI, Strain/Indicator: WP2 UVRA (PKM101), Metabolic Activation: NONE, Method: STANDARD PLATE inactive; negative | Test System: E. COLI, Strain/Indicator: WP2 UVRA, Metabolic Activation: NONE, Method: PREINCUBATION inactive; negative

CCN(CCC#N)c1cc(NC(C)=O)c(-n2nc3c(Br)cc(N)c(Cl)c3n2)cc1OC
active: Test System: AMES SALMONELLA TYPHIMURIUM, Strain/Indicator: TA98, Metabolic Activation: RAT LIVER S-9, AROCLOR 1254, Method: STANDARD PLATE active; positive | Test System: AMES SALMONELLA TYPHIMURIUM, Strain/Indicator: TA100, Metabolic Activation: RAT LIVER S-9, AROCLOR 1254, Method: STANDARD PLATE active; positive | Test System: AMES SALMONELLA TYPHIMURIUM, Strain/Indicator: TA104, Metabolic Activation: RAT LIVER S-9, AROCLOR 1254, Method: STANDARD PLATE active; positive | Test System: AMES SALMONELLA TYPHIMURIUM, Strain/Indicator: YG1024, Metabolic Activation: RAT LIVER S-9, PHENOBARBITAL, 5,6-BENZOFLAVONE (10%), Method: PREINCUBATION active; positive

CC(=O)Oc1cccc2cccnc12
inactive: Test System: AMES SALMONELLA TYPHIMURIUM, Strain/Indicator: TA100, Metabolic Activation: S-9, Method: PREINCUBATION inactive; negative

CCN(CC)CCCNc1ccc2ncn3c4ccc(O)cc4c(=O)c1c23
active: Test System: CHINESE HAMSTER V-79, Strain/Indicator: V-79 (HGPRT)/6-THIOGUANINE, Metabolic Activation: NONE active; positive

CNC(=O)C=Cc1ccc([N+](=O)[O-])o1
active: [1] active; positive
